Patent publication US11919901B2 (Syndax Pharmaceuticals, Inc., priority 2021, dated 2024)

Assays:
Menin-MLL = Menin-MLL (Homo sapiens (Human), UniProt O00255); test: Determination of binding constants (Ki) to Menin-MLL (HTRF); details: HTRF, 0.25 nM H-FL-Menin, 3.2 nM FITC-MLL-4-43, 24 hr incubation; for Ki: read-out: Menin-MLL Ki HTRF Assay: Ki
hERG = hERG (Homo sapiens (Human), UniProt Q12809); test: Patch clamp assay (hERG tail currents, whole-cell); type: cell-based; details: hERG transfected HEK 293 cells; for hERG % Remaining 30 μM: 30 μM compound; for hERG % Remaining 10 μM: 10 μM compound
Chain of hERG (Q12809 whole entry): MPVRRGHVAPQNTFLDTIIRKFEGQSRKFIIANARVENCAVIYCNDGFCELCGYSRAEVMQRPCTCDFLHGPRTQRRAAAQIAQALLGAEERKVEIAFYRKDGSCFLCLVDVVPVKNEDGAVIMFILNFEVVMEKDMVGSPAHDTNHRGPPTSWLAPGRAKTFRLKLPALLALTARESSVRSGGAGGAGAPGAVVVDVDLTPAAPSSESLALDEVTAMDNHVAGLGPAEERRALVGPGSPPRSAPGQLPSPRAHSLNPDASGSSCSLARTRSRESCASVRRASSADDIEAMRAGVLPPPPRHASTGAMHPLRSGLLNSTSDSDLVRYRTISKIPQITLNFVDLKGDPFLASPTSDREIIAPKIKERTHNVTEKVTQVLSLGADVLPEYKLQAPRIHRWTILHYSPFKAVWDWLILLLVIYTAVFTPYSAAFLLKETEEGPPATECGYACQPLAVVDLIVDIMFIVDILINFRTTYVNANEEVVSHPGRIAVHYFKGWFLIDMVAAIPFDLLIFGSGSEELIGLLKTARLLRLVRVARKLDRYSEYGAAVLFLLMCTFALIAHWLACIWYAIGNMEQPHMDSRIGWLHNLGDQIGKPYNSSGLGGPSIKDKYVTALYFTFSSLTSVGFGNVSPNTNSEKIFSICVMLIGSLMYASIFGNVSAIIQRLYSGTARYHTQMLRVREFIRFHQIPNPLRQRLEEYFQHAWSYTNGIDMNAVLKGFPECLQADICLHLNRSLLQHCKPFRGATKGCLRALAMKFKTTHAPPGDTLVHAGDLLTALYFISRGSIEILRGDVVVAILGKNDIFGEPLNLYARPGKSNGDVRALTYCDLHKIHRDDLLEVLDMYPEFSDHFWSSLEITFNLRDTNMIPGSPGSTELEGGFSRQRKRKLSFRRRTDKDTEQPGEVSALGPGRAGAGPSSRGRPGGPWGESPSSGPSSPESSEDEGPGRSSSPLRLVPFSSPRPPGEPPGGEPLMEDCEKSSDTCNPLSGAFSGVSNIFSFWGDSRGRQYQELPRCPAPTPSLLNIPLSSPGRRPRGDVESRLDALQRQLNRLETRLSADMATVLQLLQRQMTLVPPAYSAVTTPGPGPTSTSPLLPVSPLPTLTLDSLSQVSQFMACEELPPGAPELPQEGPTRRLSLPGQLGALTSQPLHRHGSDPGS
Protocol: The 35 mm culture dishes upon which cells were seeded at a density allowing single cells to be recorded were placed on the dish holder of the microscope and continuously perfused (at approximately 1 mL/min) with the bath solution described in section 4.6. All solutions applied to cells including the pipette solution were maintained at room temperature (19° C. to 30° C.). After formation of a Gigaohm seal between the patch electrodes and individual hERG stably transfected HEK 293 cells (pipette resistance range: 2.0 MΩ2 to 7.0 MΩ; seal resistance range: >1GΩ) the cell membrane across the pipette tip was ruptured to assure electrical access to the cell interior (whole-cell patch-configuration). In case the quality of the seal was poor, the process of seal formation was repeated with a different cell and a new pipette. As soon as a stable seal could be established, hERG outward tail currents were measured upon depolarization of the cell membrane to +20 mV for 2s (activation of channels) from a holding potential of −80 mV and upon subsequent repolarization to −40 mV for 3 s. This voltage protocol (as shown below) was run at least 10 times at intervals of 10 s. If current density was judged to be too low for measurement, another cell was recorded.
During wash-in of the test item the voltage protocol indicated above was run continuously again at 10 s intervals until the steady-state level of block was reached.
The IC50 was determined by fitting the dose response curve with a 2-parameter logistic function (amax=100%).

Chain of Menin-MLL (O00255 whole entry): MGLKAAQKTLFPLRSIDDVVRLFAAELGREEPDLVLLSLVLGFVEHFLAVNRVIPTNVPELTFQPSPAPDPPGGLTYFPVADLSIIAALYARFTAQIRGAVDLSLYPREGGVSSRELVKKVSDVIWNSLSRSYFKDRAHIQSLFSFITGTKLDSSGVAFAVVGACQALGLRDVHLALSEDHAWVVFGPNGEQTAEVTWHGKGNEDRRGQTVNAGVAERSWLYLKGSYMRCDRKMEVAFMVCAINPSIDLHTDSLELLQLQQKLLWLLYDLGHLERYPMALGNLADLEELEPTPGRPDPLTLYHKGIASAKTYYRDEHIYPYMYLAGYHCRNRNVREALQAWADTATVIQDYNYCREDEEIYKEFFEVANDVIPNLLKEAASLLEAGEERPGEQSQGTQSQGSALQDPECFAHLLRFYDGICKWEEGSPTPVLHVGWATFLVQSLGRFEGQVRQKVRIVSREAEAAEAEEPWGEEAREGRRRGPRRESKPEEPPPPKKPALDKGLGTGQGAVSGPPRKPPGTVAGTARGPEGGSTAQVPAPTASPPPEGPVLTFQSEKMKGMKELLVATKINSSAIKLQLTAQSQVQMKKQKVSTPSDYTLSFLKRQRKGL

Structure (SMILES)	Ki (Menin-MLL) [nM]	hERG % Remaining 30 μM (hERG)	IC50 (hERG) [nM]	EC50 (Menin-MLL) [nM]	hERG % Remaining 10 μM (hERG)	hERG % Remaining 100 μM (hERG; 100 μM compound)
Cc1nc(S(=O)(=O)N[C@@H]2CC[C@@H](CN3CCC4(CC3)CN(c3ncncc3Oc3ccc(F)cc3C(=O)N3[C@H](C)COC[C@H]3C)C4)OC2)cs1 [Compound 122, N-((3R,6S)-6-((2-(5-(2-((3R,5R)-3,5-Dimethylmorpholine-4-carbonyl)-4-fluorophenoxy)pyrimidin-4-yl)-2,7-diazaspiro[3.5]nonan-7-yl)methyl)tetrahydro-2H-pyran-3-yl)-2-methylthiazole-4-sulfonamide]	< 1	+++ (“+++” means ≥66%)	≥ 50000	–	–	–
C[C@@H]1COC[C@@H](C)N1C(=O)c1cc(F)ccc1Oc1cncnc1N1CC2(CCN(C[C@@H]3CC[C@@H](NS(=O)(=O)N(C)C)CO3)CC2)C1 [Compound 123, {[(3R,6S)-6-{[2-(5-{2-[(3R,5R)-3,5-Dimethylmorpholine-4-carbonyl]-4-fluorophenoxy}pyrimidin-4-yl)-2,7-diazaspiro[3.5]nonan-7-yl]methyl}oxan-3-yl]sulfamoyl}dimethylamine]	< 1	+++ (“+++” means ≥66%)	–	–	–	–
CCNS(=O)(=O)N[C@@H]1CC[C@@H](CN2CCC3(CC2)CN(c2ncncc2Oc2ccc(F)cc2C(=O)N2[C@H](C)COC[C@H]2C)C3)OC1 [Compound 125, {[(3R,6S)-6-{[2-(5-{2-[(3R,5R)-3,5-Dimethylmorpholine-4-carbonyl]-4-fluorophenoxy}pyrimidin-4-yl)-2,7-diazaspiro[3.5]nonan-7-yl]methyl}oxan-3-yl]sulfamoyl}(ethyl)amine]	< 1	+++ (“+++” means ≥66%)	–	–	–	–
C[C@@H]1COC[C@H](C)N1C(=O)c1cc(F)ccc1Oc1cncnc1N1CC2(CCN(C[C@@H]3CC[C@@H](NS(=O)(=O)c4ccccc4)CO3)CC2)C1 [Compound 130, N-((3R,6S)-6-((2-(5-(2-((3S,5R)-3,5-Dimethylmorpholine-4-carbonyl)-4-fluorophenoxy)pyrimidin-4-yl)-2,7-diazaspiro[3.5]nonan-7-yl)methyl)tetrahydro-2H-pyran-3-yl)benzenesulfonamide]	< 1	++ (“++” means ≥33% and <66%)	–	< 50	+++ (“+++” means ≥66%)	–
CC(C)N(C(=O)c1cc(F)ccc1Oc1cncnc1N1CC2(CCN(C[C@@H]3CC[C@@H](NS(=O)(=O)N4CCC4)CO3)CC2)C1)[C@H]1CCOC1 [Compound 134, 2-((4-(7-(((2S,5R)-5-(Azetidine-1-sulfonamido)tetrahydro-2H-pyran-2-yl)methyl)-2,7-diazaspiro[3.5]nonan-2-yl)pyrimidin-5-yl)oxy)-5-fluoro-N-isopropyl-N-((S)-tetrahydrofuran-3-yl)benzamide]	< 1	+++ (“+++” means ≥66%)	–	–	–	–
CC(C)N(CCC#N)C(=O)c1cc(F)ccc1Oc1cncnc1N1CC2(CCN(C[C@@H]3CC[C@@H](NS(=O)(=O)c4ccccc4)CO3)CC2)C1 [Compound 136, N-(2-Cyanoethyl)-5-fluoro-N-isopropyl-2-((4-(7-(((2S,5R)-5-(phenylsulfonamido)tetrahydro-2H-pyran-2-yl)methyl)-2,7-diazaspiro[3.5]nonan-2-yl)pyrimidin-5-yl)oxy)benzamide]	< 1	+ (“+” means <33%)	–	< 50	+++ (“+++” means ≥66%)	–
CC(C)N(C)C(=O)c1cc(F)ccc1Oc1cncnc1N1CC2(CCN(C[C@@H]3CC[C@@H](NS(=O)(=O)N4CCC4)CO3)CC2)C1 [Compound 138, 2-((4-(7-(((2S,5R)-5-(Azetidine-1-sulfonamido)tetrahydro-2H-pyran-2-yl)methyl)-2,7-diazaspiro[3.5]nonan-2-yl)pyrimidin-5-yl)oxy)-5-fluoro-N-isopropyl-N-methylbenzamide]	< 1	+++ (“+++” means ≥66%)	–	–	–	–
CCNS(=O)(=O)N[C@@H]1CC[C@@H](CN2CCC3(CC2)CN(c2ncncc2Oc2ccc(F)cc2C(=O)N(CC)C(C)C)C3)OC1 [Compound 141, N-Ethyl-2-((4-(7-(((2S,5R)-5-((N-ethylsulfamoyl)amino)tetrahydro-2H-pyran-2-yl)methyl)-2,7-diazaspiro[3.5]nonan-2-yl)pyrimidin-5-yl)oxy)-5-fluoro-N-isopropylbenzamide]	< 1	+++ (“+++” means ≥66%)	–	–	–	–
CCN(C(=O)c1cc(F)ccc1Oc1cncnc1N1CC2(CCN(C[C@@H]3CC[C@@H](NS(=O)(=O)NC4CC4)CO3)CC2)C1)C(C)C [Compound 142, 2-((4-(7-(((2S,5R)-5-((N-Cyclopropylsulfamoyl)amino)tetrahydro-2H-pyran-2-yl)methyl)-2,7-diazaspiro[3.5]nonan-2-yl)pyrimidin-5-yl)oxy)-N-ethyl-5-fluoro-N-isopropylbenzamide]	< 1	++ (“++” means ≥33% and <66%)	–	–	–	–
CNS(=O)(=O)N[C@@H]1CC[C@@H](CN2CCC3(CC2)CN(c2ncncc2Oc2ccc(F)cc2C(=O)N(C(C)C)C(C)C)C3)OC1 [Compound 143, 5-Fluoro-N,N-diisopropyl-2-((4-(7-(((2S,5R)-5-((N-methylsulfamoyl)amino)tetrahydro-2H-pyran-2-yl)methyl)-2,7-diazaspiro[3.5]nonan-2-yl)pyrimidin-5-yl)oxy)benzamide]	< 1	+++ (“+++” means ≥66%)	≥ 50000	–	–	+++ (“+++” means ≥66%)
CCNS(=O)(=O)N[C@@H]1CC[C@@H](CN2CCC3(CC2)CN(c2ncncc2Oc2ccc(F)cc2C(=O)N(C(C)C)C(C)C)C3)OC1 [Compound 144, 2-((4-(7-(((2S,5R)-5-((N-Ethylsulfamoyl)amino)tetrahydro-2H-pyran-2-yl)methyl)-2,7-diazaspiro[3.5]nonan-2-yl)pyrimidin-5-yl)oxy)-5-fluoro-N,N-diisopropylbenzamide]	< 1	+++ (“+++” means ≥66%)	–	–	–	–
CCNS(=O)(=O)N[C@@H]1CC[C@@H](CN2CCC3(CC2)CN(c2ncncc2Oc2ccc(F)cc2C(=O)N(C(C)C)C2CC2)C3)OC1 [Compound 145, N-Cyclopropyl-2-((4-(7-(((2S,5R)-5-((N-ethylsulfamoyl)amino)tetrahydro-2H-pyran-2-yl)methyl)-2,7-diazaspiro[3.5]nonan-2-yl)pyrimidin-5-yl)oxy)-5-fluoro-N-isopropylbenzamide]	< 1	+++ (“+++” means ≥66%)	–	–	–	–
CCNS(=O)(=O)N[C@@H]1CC[C@@H](CN2CCC3(CC2)CN(c2ncncc2Oc2ccc(F)cc2C(=O)N(CC(F)F)C(C)C)C3)OC1 [Compound 147, N-(2,2-Difluoroethyl)-2-((4-(7-(((2S,5R)-5-((N-ethylsulfamoyl)amino)tetrahydro-2H-pyran-2-yl)methyl)-2,7-diazaspiro[3.5]nonan-2-yl)pyrimidin-5-yl)oxy)-5-fluoro-N-isopropylbenzamide]	< 1	+++ (“+++” means ≥66%)	≥ 50000	–	+++ (“+++” means ≥66%)	–
CC(C)N(CC(F)F)C(=O)c1cc(F)ccc1Oc1cncnc1N1CC2(CCN(C[C@@H]3CC[C@@H](NS(=O)(=O)NCC4CC4)CO3)CC2)C1 [Compound 148, 2-((4-(7-(((2S,5R)-5-((N-(Cyclopropylmethyl)sulfamoyl)amino)tetrahydro-2H-pyran-2-yl)methyl)-2,7-diazaspiro[3.5]nonan-2-yl)pyrimidin-5-yl)oxy)-N-(2,2-difluoroethyl)-5-fluoro-N-isopropylbenzamide]	< 1	+++ (“+++” means ≥66%)	–	–	–	–
CC(C)N(CC(F)F)C(=O)c1cc(F)ccc1Oc1cncnc1N1CC2(CCN(C[C@@H]3CC[C@@H](NS(=O)(=O)NC4CC4)CO3)CC2)C1 [Compound 149, 2-((4-(7-(((2S,5R)-5-((N-Cyclopropylsulfamoyl)amino)tetrahydro-2H-pyran-2-yl)methyl)-2,7-diazaspiro[3.5]nonan-2-yl)pyrimidin-5-yl)oxy)-N-(2,2-difluoroethyl)-5-fluoro-N-isopropylbenzamide]	< 1	+++ (“+++” means ≥66%)	–	–	–	–
CCNS(=O)(=O)N[C@@H]1CC[C@@H](CN2CCC3(CC2)CN(c2ncncc2Oc2ccc(F)cc2C(=O)N(CC(F)(F)F)C(C)C)C3)OC1 [Compound 153, 2-((4-(7-(((2S,5R)-5-((N-Ethylsulfamoyl)amino)tetrahydro-2H-pyran-2-yl)methyl)-2,7-diazaspiro[3.5]nonan-2-yl)pyrimidin-5-yl)oxy)-5-fluoro-N-isopropyl-N-(2,2,2-trifluoroethyl)benzamide]	< 1	+++ (“+++” means ≥66%)	≥ 50000	–	–	–
CNS(=O)(=O)N[C@@H]1CC[C@@H](CN2CCC3(CC2)CN(c2ncncc2Oc2ccc(F)cc2C(=O)N(C(C)C)C2CC(F)(F)C2)C3)OC1 [Compound 154]	< 1	++ (“++” means ≥33% and <66%)	–	–	+++ (“+++” means ≥66%)	–
CCNS(=O)(=O)N[C@@H]1CC[C@@H](CN2CCC3(CC2)CN(c2ncncc2Oc2ccc(F)cc2C(=O)N(C(C)C)C2CC(F)(F)C2)C3)OC1 [Compound 155, N-(3,3-Difluorocyclobutyl)-2-((4-(7-(((2S,5R)-5-((N-ethylsulfamoyl)amino)tetrahydro-2H-pyran-2-yl)methyl)-2,7-diazaspiro[3.5]nonan-2-yl)pyrimidin-5-yl)oxy)-5-fluoro-N-isopropylbenzamide]	< 1	++ (“++” means ≥33% and <66%)	–	–	+++ (“+++” means ≥66%)	–
CC(C)N(C(=O)c1cc(F)ccc1Oc1cncnc1N1CC2(CCN(C[C@@H]3CC[C@@H](NS(=O)(=O)c4cnn(C)c4)CO3)CC2)C1)C1CC(F)(F)C1 [Compound 156, N-(3,3-Difluorocyclobutyl)-5-fluoro-N-isopropyl-2-((4-(7-(((2S,5R)-5-((1-methyl-1H-pyrazole)-4-sulfonamido)tetrahydro-2H-pyran-2-yl)methyl)-2,7-diazaspiro[3.5]nonan-2-yl)pyrimidin-5-yl)oxy)benzamide]	< 1	+++ (“+++” means ≥66%)	–	–	–	–
